# Experimental data from US20230330254A1 (Regeneron Pharmaceuticals, Inc., priority 2022, published 2023).
# Where a SMILES comes first, the peptide text is derived from it. [ ]: non-standard residue; d: D form. The star is where a group is joined. Bip(2'-Et,4'-O(CH2)4N3) = CCc1cc(OCCCCN=[N+]=[N-])ccc1-c1ccc(C[C@H](N)C(=O)O)cc1; Bip(2'-Et,4'-O(CH2)4NH2) = CCc1cc(OCCCCN)ccc1-c1ccc(C[C@H](N)C(=O)O)cc1; Nva(5-(3,5-Me2Ph)) = Cc1cc(C)cc(CCC[C@H](N)C(=O)O)c1; Ala(1H-tetrazol-5-yl) = N[C@@H](Cc1nnn[nH]1)C(=O)O; αMePhe(2-F) = C[C@](N)(Cc1ccccc1F)C(=O)O; X9 = O=C([C@@H]1CCN(CCc2cnc[nH]2)C1)*; X8 = O=C([C@H]1CCN(CCc2cnc[nH]2)C1)*
# Experiments:
# human GLP1R [1] = biological target: T1, human GLP1R (Homo sapiens, UniProt P43220); assay: Human GLP1R cAMP accumulation assay; format: cell-based; parameters: HEK293 cells over-expressing full length human GLP-1R were utilized; expressed in transfected cells; host or cells: HEK293 (HEK293/hGLP1R); settings: HEK293/hGLP1R cells; Table 4; read-out: cAMP EC50
# Protocol: 8.1 Human GLP1R cAMP Accumulation Assay (Cyclic AMP Determination)
# The functional activity of the test compounds for agonizing GLP1R were evaluated using a cell-based assay. For the assay, HEK293 cells over-expressing full length human GLP-1R were utilized and the downstream cAMP accumulation was assessed as a measure of human GLP-1R stimulation. […] Diluted compounds were transferred to OptiPlates (100 nL/well) using an Echo liquid handler. HEK293/hGLP1R cells were thawed in 37° C. water-bath, washed 2 times with HBSS and re-suspended in assay buffer (HBSS+5 mM HEPES+500 μM IBMX+0.1% BSA). […] After centrifugation, the assay plate was incubated at 23° C. for 30 min. The reaction was terminated by adding 10 μL of lysis buffer containing D2-cAMP and a cAMP-antibody from the cyclic AMP immunoassay kit (Cisbio, Cat #62AM4PEJ). […] The levels of cAMP per well were calculated using a standard curve generated by GraphPad Prism. Percent activity was calculated according to the formula (% Activity=100%*(cAMP level-LC)/(HC-LC)). EC50 values were fitted from a four-parameter logistic equation over a 10-point response curve (GraphPad Prism).
# HEK293/CRE-Luc cells = assay: Luciferase reporter assay, HEK293/CRE-Luc cells without GLP1R (Example 17); format: cell-based, human; settings: HEK293/CRE-Luc cells without hGLP1R, payloads and linker-payloads; for EC50: read-out: EC50
# Source text: (§1) To test the activity of GLP1R agonist payloads, GLP1R agonist linker-payloads (LPs), and anti-GLP1R antibody tethered drug conjugates (ATDCs) of the invention, a cell-based cAMP responsive luciferase reporter assay was developed. To generate the assay cell line, the firefly luciferase gene was placed under the control of a cAMP response element (CRE) located upstream of a minimal promoter and transfected into HEK293 cells and referred to herein as HEK293/CRE-Luc cells.
# (§2) Three-fold serial dilutions of free payloads or LPs were prepared in 100% DMSO, transferred to fresh assay media, and added to the cells at a final constant DMSO concentration of 0.2%. The last well in the plate served as a blank control containing only the assay media and 0.2% DMSO (untreated well) and was plotted as a continuation of the 3-fold serial dilution. Four to six hours later, luciferase activity was determined after the addition of One-Glo™ reagent (Promega, Cat #E6130) to each well. Relative light units (RLUs) were measured on an Envision luminometer (PerkinElmer) and EC50 values were determined using a four-parameter logistic equation over a 12-point dose response curve (GraphPad Prism). The signal to noise (S/N) was determined by taking the ratio of the highest RLU on the dose response curve to the RLU in the untreated wells. Data was generated across several experiments (A-E) with M2361 serving as a reference standard in each experiment to calculate the payload relative potency ((M2361 EC50/payload EC50)*100)) and relative S/N ((payload SN/M2361 SN)*100)).
# human GLP1R [2] = biological target: T1, human GLP1R; assay: Luciferase reporter assay, HEK293/CRE-Luc/hGLP1R (Example 17); format: cell-based; parameters: engineered to express full-length human GLP1R, cynomolgus GLP1R; expressed in transfected cells; host or cells: HEK293/CRE-Luc; settings: for S/N: highest RLU / RLU of untreated wells; for Relative Potency (% M2361 EC50) / Relative Signal:Noise (% M2361): relative to M2361 of the same experiment
# Source text: as §1, §2
# [3] = HEK293/CRE-Luc/hGLP1R, payloads and linker-payloads, experiments A-E, M2361 repeated in each, read-out: EC50
# T1 sequence (P43220 24-463): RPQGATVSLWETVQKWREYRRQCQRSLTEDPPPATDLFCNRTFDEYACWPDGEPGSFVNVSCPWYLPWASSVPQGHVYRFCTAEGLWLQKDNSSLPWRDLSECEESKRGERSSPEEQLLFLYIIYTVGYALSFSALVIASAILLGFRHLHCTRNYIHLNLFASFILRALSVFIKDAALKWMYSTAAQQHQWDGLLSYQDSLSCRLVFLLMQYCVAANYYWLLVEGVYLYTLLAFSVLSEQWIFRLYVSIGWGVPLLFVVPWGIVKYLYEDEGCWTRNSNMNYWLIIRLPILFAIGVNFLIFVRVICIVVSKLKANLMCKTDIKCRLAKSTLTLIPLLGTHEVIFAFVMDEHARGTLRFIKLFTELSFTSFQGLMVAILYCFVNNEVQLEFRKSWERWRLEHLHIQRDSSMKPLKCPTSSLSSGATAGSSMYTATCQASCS
Structure (SMILES),EC50 (human GLP1R [1]),S/N (HEK293/CRE-Luc cells),EC50 (HEK293/CRE-Luc cells),S/N (human GLP1R [2]; HEK293/CRE-Luc/hGLP1R),Relative Potency (% M2361 EC50) (human GLP1R [2]; HEK293/CRE-Luc/hGLP1R),Relative Signal:Noise (% M2361) (human GLP1R [2]; HEK293/CRE-Luc/hGLP1R),also measured
"CCc1cc(OCCCCN)ccc1-c1ccc(C[C@H](NC(=O)[C@H](CC(=O)O)NC(=O)[C@H](CO)NC(=O)[C@@H](NC(=O)[C@](C)(Cc2ccccc2F)NC(=O)[C@@H](NC(=O)CNC(=O)[C@@H](N)CCC(N)=O)[C@@H](C)O)[C@@H](C)O)C(=O)N[C@@H](CCCc2cc(C)cc(C)c2)C(N)=O)cc1 [P20, (3S)-4-[[(1S)-1-[[4-[4-(4-aminobutoxy)-2-ethyl-phenyl]phenyl]methyl]-2-[[(1S)-1-carbamoyl-4-(3,5-dimethylphenyl)butyl]amino]-2-oxo-ethyl]amino]-3-[[(2S)-2-[[(2S,3R)-2-[[(2S)-2-[[(2S,3R)-2-[[2-[[(2S)-2,5-diamino-5-oxopentanoyl]amino]acetyl]amino]-3-hydroxy-butanoyl]amino]-3-(2-fluorophenyl)-2-methyl-propanoyl]amino]-3-hydroxybutanoyl]amino]-3-hydroxy-propanoyl]amino]-4-oxo-butanoic acid]",370 pM,–,–,–,–,–,–
"CCc1cc(OCCCCNC(=O)CNC(=O)CNC(=O)CNC(=O)CNC(=O)[C@H](CO[C@@H]2OC(CO)[C@@H](O)C(O)C2O)NC(=O)CCC(=O)N2Cc3ccccc3C#Cc3ccccc32)ccc1-c1ccc(C[C@H](NC(=O)[C@H](CC(=O)O)NC(=O)[C@H](CO)NC(=O)[C@@H](NC(=O)[C@](C)(Cc2ccccc2F)NC(=O)[C@@H](NC(=O)CNC(=O)[C@H](Cc2nn[nH]n2)NC(=O)C(C)(C)C(=O)NCCc2cnc[nH]2)[C@@H](C)O)[C@@H](C)O)C(=O)N[C@@H](CCCc2cc(C)cc(C)c2)C(N)=O)cc1 (some centres unmarked) [LP20, DIBAC-suc-(glucose) SG4-P9]",314 pM,–,–,–,–,–,–
"CCc1cc(OCCCCNC(=O)CNC(=O)CNC(=O)CNC(=O)CNC(=O)[C@H](CO)NC(=O)CCC(=O)N2Cc3ccccc3C#Cc3ccccc32)ccc1-c1ccc(C[C@H](NC(=O)[C@H](CC(=O)O)NC(=O)[C@H](CO)NC(=O)[C@@H](NC(=O)[C@](C)(Cc2ccccc2F)NC(=O)[C@@H](NC(=O)CNC(=O)[C@H](Cc2nn[nH]n2)NC(=O)C(C)(C)C(=O)NCCc2cnc[nH]2)[C@@H](C)O)[C@@H](C)O)C(=O)N[C@@H](CCCc2cc(C)cc(C)c2)C(=O)Nc2ccccc2)cc1 [LP16, DIBAC-suc-SG4-P23]",1040 pM,–,–,–,–,–,–
CCc1cc(OCCCCN)ccc1-c1ccc(C[C@H](NC(=O)[C@H](CC(=O)O)NC(=O)[C@H](CO)NC(=O)[C@@H](NC(=O)[C@](C)(Cc2ccccc2F)NC(=O)[C@@H](NC(=O)CNC(=O)[C@H](Cc2nn[nH]n2)NC(=O)[C@]2(C)CCN(CCc3cnc[nH]3)C2=O)[C@@H](C)O)[C@@H](C)O)C(=O)N[C@@H](CCCc2cc(C)cc(C)c2)C(N)=O)cc1 [P14-S],727 pM,–,–,–,–,–,–
CCc1cc(OCCCCN)ccc1-c1ccc(C[C@H](NC(=O)[C@H](CC(=O)O)NC(=O)[C@H](CO)NC(=O)[C@@H](NC(=O)[C@](C)(Cc2ccccc2F)NC(=O)[C@@H](NC(=O)CNC(=O)[C@H](Cc2nn[nH]n2)NC(=O)C2(C)CCN(CCc3cnc[nH]3)C2=O)[C@@H](C)O)[C@@H](C)O)C(=O)N[C@@H](CCCc2cc(C)cc(C)c2)C(N)=O)cc1 (stereo in doubt) [P14],–,1.6,> 200000 pM,74.9,2.9%,113.9%,EC50 (human GLP1R [2]; [3]): 184 pM
"CCc1cc(OCCCCN)ccc1-c1ccc(C[C@H](NC(=O)[C@H](CC(=O)O)NC(=O)[C@H](CO)NC(=O)[C@@H](NC(=O)[C@](C)(Cc2ccccc2F)NC(=O)[C@@H](NC(=O)CNC(=O)[C@H](Cc2nn[nH]n2)NC(=O)[C@H]2CCN(CCc3cnc[nH]3)C2)[C@@H](C)O)[C@@H](C)O)C(=O)N[C@@H](CCCc2cc(C)cc(C)c2)C(N)=O)cc1 [P16] (X8-[Ala(1H-tetrazol-5-yl)]GT[αMePhe(2-F)]TSD[Bip(2'-Et,4'-O(CH2)4NH2)][Nva(5-(3,5-Me2Ph))]-NH2)",–,1.1,> 200000 pM,55.1,2.5%,83.8%,EC50 (human GLP1R [2]; [3]): 217 pM
"CCc1cc(OCCCCn2cc(COCCOCCOCCOCCNC(=O)CCC(=O)N3Cc4ccccc4C#Cc4ccccc43)nn2)ccc1-c1ccc(C[C@H](NC(=O)[C@H](CC(=O)O)NC(=O)[C@H](CO)NC(=O)[C@@H](NC(=O)[C@](C)(Cc2ccccc2F)NC(=O)[C@@H](NC(=O)CNC(=O)[C@H](Cc2nn[nH]n2)NC(=O)C(C)(C)C(=O)NCCc2cnc[nH]2)[C@@H](C)O)[C@@H](C)O)C(=O)N[C@@H](CCCc2cc(C)cc(C)c2)C(N)=O)cc1 [LP8, DIBAC-suc-PEG4-triazole-P8]",412 pM,–,–,–,–,–,–
"CCc1cc(OCCCCN)ccc1-c1ccc(C[C@H](NC(=O)[C@H](CC(=O)O)NC(=O)[C@H](CO)NC(=O)[C@@H](NC(=O)[C@](C)(Cc2ccccc2F)NC(=O)[C@@H](NC(=O)CNC(=O)[C@H](Cc2nn[nH]n2)NC(=O)[C@H]2CCN(CCc3cnc[nH]3)C2)[C@@H](C)O)[C@@H](C)O)C(=O)N[C@@H](CCCc2cc(C)cc(C)c2)C(N)=O)cc1 [P16-S] (X8-[Ala(1H-tetrazol-5-yl)]GT[αMePhe(2-F)]TSD[Bip(2'-Et,4'-O(CH2)4NH2)][Nva(5-(3,5-Me2Ph))]-NH2)",544 pM,–,–,–,–,–,–
CCc1cc(OCCCCN)ccc1-c1ccc(C[C@H](NC(=O)[C@H](CC(=O)O)NC(=O)[C@H](CO)NC(=O)[C@@H](NC(=O)[C@](C)(Cc2ccccc2F)NC(=O)[C@@H](NC(=O)CNC(=O)[C@@H](N)CCC(N)=O)[C@@H](C)O)[C@@H](C)O)C(=O)N[C@@H](CCCc2cc(C)cc(C)c2)C(N)=O)cc1 [M2913],–,1.1,> 200000 pM,3.2,0.0%,4.9%,–
"CCc1cc(OCCCCN)ccc1-c1ccc(C[C@H](NC(=O)[C@H](CC(=O)O)NC(=O)[C@H](CO)NC(=O)[C@@H](NC(=O)[C@](C)(Cc2ccccc2F)NC(=O)[C@@H](NC(=O)CNC(=O)[C@H](Cc2nn[nH]n2)NC(=O)[C@@H]2CCN(CCc3cnc[nH]3)C2)[C@@H](C)O)[C@@H](C)O)C(=O)N[C@@H](CCCc2cc(C)cc(C)c2)C(N)=O)cc1 [P17-R] (X9-[Ala(1H-tetrazol-5-yl)]GT[αMePhe(2-F)]TSD[Bip(2'-Et,4'-O(CH2)4NH2)][Nva(5-(3,5-Me2Ph))]-NH2)",11200 pM,–,–,–,–,–,–
"CCc1cc(OCCCCN=[N+]=[N-])ccc1-c1ccc(C[C@H](NC(=O)[C@H](CC(=O)O)NC(=O)[C@H](CO)NC(=O)[C@@H](NC(=O)[C@](C)(Cc2ccccc2F)NC(=O)[C@@H](NC(=O)CNC(=O)[C@@H](N)Cc2nn[nH]n2)[C@@H](C)O)[C@@H](C)O)C(=O)N[C@@H](CCCc2cc(C)cc(C)c2)C(N)=O)cc1 [M2383] (H-[Ala(1H-tetrazol-5-yl)]GT[αMePhe(2-F)]TSD[Bip(2'-Et,4'-O(CH2)4N3)][Nva(5-(3,5-Me2Ph))]-NH2)",–,1.8,> 200000 pM,293.3,0.0%,89.4%,"EC50 (human GLP1R [2]; [3]): > 200000 pM; EC50 (human GLP1R [2]; text b1830, read-out: EC50 in HEK293/CRE-Luc/hGLP1R cells): > 20000 pM"
"CCc1cc(OCCCCNC(=O)[C@@H](CO)NC(=O)CNC(=O)CNC(=O)CNC(=O)CNC(=O)COC2C#CCCCCC2)ccc1-c1ccc(C[C@H](NC(=O)[C@H](CC(=O)O)NC(=O)[C@H](CO)NC(=O)[C@@H](NC(=O)C(C)(Cc2ccccc2F)NC(=O)[C@@H](NC(=O)CNC(=O)[C@H](Cc2nn[nH]n2)NC(=O)C(C)(C)C(=O)NCCc2cnc[nH]2)[C@@H](C)O)[C@@H](C)O)C(=O)N[C@@H](CCCc2cc(C)cc(C)c2)C(N)=O)cc1 (stereo partly drawn) [LP19, COT-G4-(R)Ser-P9]",558 pM,–,–,–,–,–,–
